Values of other authors in patent US6399099B1, “Effervescent composition with dry extract of ginkgo biloba” (Dr. Willmar Schwabe GmbH & Co., priority 1995, dated 2002).

Conditions: neutral or slightly basic aqueous medium

SMILES: CC(C)(C)[C@]1(O)CC2OC(=O)CC23C(=O)OC2OC(=O)[C@H](O)C231 (stereo partly shown) [bilobalide]
- stability in aqueous medium: not stable
